Measurements as given in patent US6667387B1, “HCV core peptides” (priority 1992, dated 2003).
Ends that are not written are not given here.

Legend:
[1] = ELISA with seronegative / negative control sera (specificity); assay type: binding, human
Method in brief: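 Specificity readout is OD at 450 nm (HRP goat anti-human Ig, TMB/H2O2, sulfuric acid stop), with ≥0.250 counted positive. Seronegative donor sera (typically 1:100, 1 h, 37° C) were applied to casein-blocked wells coated with peptide directly or via streptavidin capture of biotinylated peptide.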

[2] = test system: antibodies in sera from HCV-seropositive donors; experiment: ELISA with HCV antibody-positive sera (biotinylated peptides on streptavidin- or avidin-coated plates, unbiotinylated peptides coated directly); assay type: binding, human
Method in brief: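 Read-out is OD at 450 nm after HRP goat anti-human Ig and TMB development, following 1 h at 37° C. with seropositive or negative sera diluted 1:100 (or 20-fold). Antigen was either unbiotinylated peptide adsorbed on plastic (pH 9.6 carbonate, 2–5 or 3 μg/ml) or biotinylated peptide at 1 μg/ml captured on streptavidin-coated wells, with casein blocking.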

PQRKTKRNTNRRPQDVKFPG
optical density (450 nm) ([1]; Table 4C, negative serum): 0.047
optical density (450 nm) ([1]; Table 5, sample 1747 (negative), peptide concentration 0.01 micrograms per milliliter, listed as Unbiotinylated HCV peptide II): 0.041
optical density (450 nm) ([1]; Table 5, sample 1747 (negative), peptide concentration 0.03 micrograms per milliliter, listed as Unbiotinylated HCV peptide II): 0.043
optical density (450 nm) ([1]; Table 5, sample 1747 (negative), peptide concentration 0.1 micrograms per milliliter, listed as Unbiotinylated HCV peptide II): 0.044
optical density (450 nm) ([1]; Table 5, sample 1747 (negative), peptide concentration 0.3 micrograms per milliliter, listed as Unbiotinylated HCV peptide II): 0.041
optical density (450 nm) ([1]; Table 5, sample 1747 (negative), peptide concentration 1.0 micrograms per milliliter, listed as Unbiotinylated HCV peptide II): 0.046
optical density (450 nm) ([1]; Table 5, sample 1747 (negative), peptide concentration 3.0 micrograms per milliliter, listed as Unbiotinylated HCV peptide II): 0.049
optical density (450 nm) ([1]; Table 5, sample 1781 (negative), peptide concentration 0.01 micrograms per milliliter, listed as Unbiotinylated HCV peptide II): 0.046
optical density (450 nm) ([1]; Table 5, sample 1781 (negative), peptide concentration 0.03 micrograms per milliliter, listed as Unbiotinylated HCV peptide II): 0.053
optical density (450 nm) ([1]; Table 5, sample 1781 (negative), peptide concentration 0.1 micrograms per milliliter, listed as Unbiotinylated HCV peptide II): 0.046
optical density (450 nm) ([1]; Table 5, sample 1781 (negative), peptide concentration 0.3 micrograms per milliliter, listed as Unbiotinylated HCV peptide II): 0.045
optical density (450 nm) ([1]; Table 5, sample 1781 (negative), peptide concentration 1.0 micrograms per milliliter, listed as Unbiotinylated HCV peptide II): 0.053
optical density (450 nm) ([1]; Table 5, sample 1781 (negative), peptide concentration 3.0 micrograms per milliliter, listed as Unbiotinylated HCV peptide II): 0.053
optical density (450 nm) ([2]; Table 4C, serum 8241, 20-fold dilution): 0.444
optical density (450 nm) ([2]; Table 4C, serum 8242, 20-fold dilution): 1.682
optical density (450 nm) ([2]; Table 4C, serum 8243, 20-fold dilution): 2.181
optical density (450 nm) ([2]; Table 4C, serum 8247, 20-fold dilution): 1.518
optical density (450 nm) ([2]; Table 4C, serum 8250, 20-fold dilution): 0.110
optical density (450 nm) ([2]; Table 4C, serum 8271, 20-fold dilution): 0.912
optical density (450 nm) ([2]; Table 4C, serum 8273, 20-fold dilution): 2.468
optical density (450 nm) ([2]; Table 4C, serum 8274, 20-fold dilution): 2.700
optical density (450 nm) ([2]; Table 4C, serum 8275, 20-fold dilution): 1.489
optical density (450 nm) ([2]; Table 4C, serum 8276, 20-fold dilution): 2.133
optical density (450 nm) ([2]; Table 4C, serum 8277, 20-fold dilution): 1.771
optical density (450 nm) ([2]; Table 4C, serum 8278, 20-fold dilution): 1.907
optical density (450 nm) ([2]; Table 5, sample 8242 (positive), peptide concentration 0.01 micrograms per milliliter, listed as Unbiotinylated HCV peptide II): 0.051
optical density (450 nm) ([2]; Table 5, sample 8242 (positive), peptide concentration 0.03 micrograms per milliliter, listed as Unbiotinylated HCV peptide II): 0.048
optical density (450 nm) ([2]; Table 5, sample 8242 (positive), peptide concentration 0.1 micrograms per milliliter, listed as Unbiotinylated HCV peptide II): 0.058
optical density (450 nm) ([2]; Table 5, sample 8242 (positive), peptide concentration 0.3 micrograms per milliliter, listed as Unbiotinylated HCV peptide II): 0.234
optical density (450 nm) ([2]; Table 5, sample 8242 (positive), peptide concentration 1.0 micrograms per milliliter, listed as Unbiotinylated HCV peptide II): 0.408
optical density (450 nm) ([2]; Table 5, sample 8242 (positive), peptide concentration 3.0 micrograms per milliliter, listed as Unbiotinylated HCV peptide II): 0.539
optical density (450 nm) ([2]; Table 5, sample 8243 (positive), peptide concentration 0.01 micrograms per milliliter, listed as Unbiotinylated HCV peptide II): 0.056
optical density (450 nm) ([2]; Table 5, sample 8243 (positive), peptide concentration 0.03 micrograms per milliliter, listed as Unbiotinylated HCV peptide II): 0.057
optical density (450 nm) ([2]; Table 5, sample 8243 (positive), peptide concentration 0.1 micrograms per milliliter, listed as Unbiotinylated HCV peptide II): 0.181
optical density (450 nm) ([2]; Table 5, sample 8243 (positive), peptide concentration 0.3 micrograms per milliliter, listed as Unbiotinylated HCV peptide II): 0.831
optical density (450 nm) ([2]; Table 5, sample 8243 (positive), peptide concentration 1.0 micrograms per milliliter, listed as Unbiotinylated HCV peptide II): 1.221
optical density (450 nm) ([2]; Table 5, sample 8243 (positive), peptide concentration 3.0 micrograms per milliliter, listed as Unbiotinylated HCV peptide II): 1.341
optical density (450 nm) ([2]; Table 5, sample 8318 (positive), peptide concentration 0.01 micrograms per milliliter, listed as Unbiotinylated HCV peptide II): 0.048
optical density (450 nm) ([2]; Table 5, sample 8318 (positive), peptide concentration 0.03 micrograms per milliliter, listed as Unbiotinylated HCV peptide II): 0.095
optical density (450 nm) ([2]; Table 5, sample 8318 (positive), peptide concentration 0.1 micrograms per milliliter, listed as Unbiotinylated HCV peptide II): 0.181
optical density (450 nm) ([2]; Table 5, sample 8318 (positive), peptide concentration 0.3 micrograms per milliliter, listed as Unbiotinylated HCV peptide II): 0.347
optical density (450 nm) ([2]; Table 5, sample 8318 (positive), peptide concentration 1.0 micrograms per milliliter, listed as Unbiotinylated HCV peptide II): 0.626
optical density (450 nm) ([2]; Table 5, sample 8318 (positive), peptide concentration 3.0 micrograms per milliliter, listed as Unbiotinylated HCV peptide II): 0.791
optical density (450 nm) ([2]; Table 5, sample 8320 (positive), peptide concentration 0.01 micrograms per milliliter, listed as Unbiotinylated HCV peptide II): 0.479
optical density (450 nm) ([2]; Table 5, sample 8320 (positive), peptide concentration 0.03 micrograms per milliliter, listed as Unbiotinylated HCV peptide II): 1.272
optical density (450 nm) ([2]; Table 5, sample 8320 (positive), peptide concentration 0.1 micrograms per milliliter, listed as Unbiotinylated HCV peptide II): 1.828
optical density (450 nm) ([2]; Table 5, sample 8320 (positive), peptide concentration 0.3 micrograms per milliliter, listed as Unbiotinylated HCV peptide II): 2.004
optical density (450 nm) ([2]; Table 5, sample 8320 (positive), peptide concentration 1.0 micrograms per milliliter, listed as Unbiotinylated HCV peptide II): 2.163
optical density (450 nm) ([2]; Table 5, sample 8320 (positive), peptide concentration 3.0 micrograms per milliliter, listed as Unbiotinylated HCV peptide II): 2.278
